# Values joined by “and” are separate entries in the source; they are usually repeats but may differ in a detail not shown here. Equal entries are not always repeated. “Also recorded” adds a separate entry of the source. Where two headings read alike, the source gives them in different places.
# What was measured:
# [1] = test system: Gα13/LARG/SRE transcriptional signaling pathway; experiment: Gα13QL/LARG-stimulated SRE.L luciferase reporter assay (HTS) in HEK293T cells; assay type: cell-based, human; details: for Inhibition of G13/LARG-stimulated rho transcriptional signaling: FIG. 5
# Experimental: FIG. 2 Optimization of HTS Assay. HEK293T cells in 10 cm dishes were co-transfected with 2×-SRE luciferase reporter plasmid (3000 ng) alone or with Gα13QL (5 ng constitutive active mutant) and LARG (150 ng) expression plasmids for 5 hours. Then, the cells were plated into 96-well, and serum-starved for approx. 18 hours (0.5% Fetal Bovine Serum, DMEM medium). Cells were lysed and assayed for luciferase activity via Steady-Glo reagent (Promega) and a luminometer.
# In exemplary embodiments of the present invention, HEK293T cells were transiently transfected with a 2×SRE.L-luciferase reporter plasmid that responds selectively to rho signaling (Hill et al., Cell 81:1159-1170, 1995). […] This expression plasmid is specific for rho/MKL/SRF driven gene expression. To stimulate rho, the upstream activators G13 and LARG (FIG. 1) were used. A constitutively active Gα13Q226L plasmid was co-transfected, along with an N-terminal myc-tagged LARG plasmid from Dr. Tohru Kozasa.
# To use the reporter assay readout for high throughput chemical inhibition studies, the assay was modified to accommodate chemical inhibitors. Transfection was performed in 10 cm dishes with Lipofectamine 2000. Five hours after transfection, the cells were trypsinized and 30,000 cells per well were transferred into sterile white flat-bottom 96-well plates pre-spotted with 1 μl of chemical compound in DMSO (10 μM final conc). Cells were grown overnight in low serum (0.5% FBS/DMEM medium) exposed to the chemical compounds (in 1% DMSO) for approximately 18 hours before luminescence was read with Steady-Glo luciferase reagent (Promega) in a Victor II plate reader. As a positive inhibitor control, 0.5 μM of Latrunculin B was added to 8 wells per plate. In addition, 8 wells were treated with DMSO only. Latrunculin B is a marine toxin from the Red Sea sponge that is known to sequester monomeric G-actin in the cell and block rho-mediated transcriptional events (Miralles et al., Cell 113:329-342, 2003). The percent inhibition of the Gα13 QL/LARG stimulated SRE-luciferase response was calculated by setting the mean of the negative control (DMSO only) at 0% and the mean of the positive control (Latrunculin B) at 100%. The Z′ score of the assay for high throughput screening was excellent at 0.7 (FIG. 2) indicating reproducibility well-suited to HTS studies.
# (§1) An exemplary screen for small molecule inhibitors of the Gα13/LARG/SRE transcriptional signaling pathway utilized a 2000 compound subset of the Maybridge Diverse Chemical Compound Library at 10 μM in the firefly luciferase assay described above. SRE transcription was stimulated by co-transfection of the constitutively active Gα13QL with LARG. […] A cutoff of 75% inhibition was chosen to identify hits for inhibition of the Gα13/LARG/SRE transcriptional signaling pathway. A total of 39 out of 2000 compounds met this criterion. […] To address this issue, a dual luciferase method with a “flash” luciferase substrate plus CMV-Renilla was used as a non-SRF-dependent reporter to eliminate toxic compounds (Table 2). This screen yielded only 4 compounds that were active and specific for the SRE.L reporter signal.
# SRE Luciferase = SRE Luciferase reporter with different rho pathway activators (PC-3 cells, FIG. 8, FIG. 13); assay type: cell-based, human; details: for luciferase expression induced by G13, LARG or constitutively active rhoA-GV: FIG. 8
# Experimental: (§2) FIG. 8 Inhibition of reporter gene transcription in PC-3 cells. CCG 1423 (10 μM) acts at the transcriptional level inhibiting SRE Luciferase stimulated by both upstream (Gα13, LARG, and RhoA-GV) and downstream signals (MKL1).
# FIG. 13. Inhibition by CCG-1423 of three different rho pathway activators (G13, rhoA-GV, and MKL1) with no effect on control reporter plasmid CMV-Renilla.
# (§3) The point of action of these inhibitors in the assay was investigated by transfecting the cells with different activators of the pathway (rho, MKL1, and an activated SRF analog SRF-VP16). […] This is consistent with the known site of action of Latruculin. […] Thus, the compounds may be acting by inhibiting MKL- or SRF- or both MKL and SRF-dependent gene transcription. […] Regardless of the mechanism of action, the present invention describes a novel gene transcription inhibitor that selectively prevents MKL/SRF-mediated signals.
# [2] = test system: PC-3 prostate cancer cells; experiment: DNA synthesis (BrdU incorporation) in PC-3 cells; assay type: cell-based, human; details: presence of serum
# Experimental: FIG. 9 Serum and LPA stimulate DNA synthesis in PC-3 cells. PC-3 cells serum starved for 24 hours were treated for an additional 24 hours in the presence of serum (10% FBS) or the indicated concentrations of LPA. BrdU was added to the medium for the last 2 hours and incorporated BrdU detected in 96-well plates by immunostaining.
# FIG. 10 CCG-1423 inhibits LPA- but not FBS-stimulated DNA synthesis in PC-3 prostate cancer cells.
# RhoC = RhoC transcriptional signal, SRE-Luciferase / CMV-Renilla dual reporters (FIG. 6); assay type: cell-based; details: 6 micromolar, added 6 hours after transfection, read 16 hours later
# Experimental: (§4) FIG. 6 CCG-1423 inhibits both RhoA and RhoC transcriptional signals. Cells were transfected with the dual reporters SRE-Luciferase and CMV-Renilla then 6 hours later, 6 micromolar CCG-1423 was added and reporter activity measured 16 hours later.
# SKOV-3 cells [3] = experiment: Cell growth (WST1 absorbance) of SKOV-3 cells; assay type: cell-based
# Experimental: PC-3 or SKOV-3 cells (2000 per well) were plated in medium containing 2% FBS. After growth overnight, the indicated concentrations of CCG-1423 were added from a DMSO stock (<1% final) and cells allowed to continue growing for an additional 7 days. Cell growth was measured by WST1 absorbance (similar to MTT). The IC50 values for PC-3 and SKOV-3 cells were 600 nM and 3 μM. The dotted line represents a no-cell blank.
# PC-3 cells [4] = experiment: WST1 metabolism viability control for BrdU studies; assay type: cell-based, human; details: 10 uM, 18 hours of drug treatment, absence of serum
# Experimental: Even more exciting are the effects of the novel inhibitors of the present invention on PC-3 cell functions (LPA-stimulated DNA synthesis, proliferation, and invasion). More particularly, it is shown that for the highly aggressive human PC-3 prostate cancer cell line, the novel inhibitors described herein inhibit proliferation, LPA-stimulated DNA synthesis, and matrix invasion. All of these effects occur at remarkably similar concentrations (IC50 900, 830, and 600 nM, respectively). This is also very similar to the concentration needed to inhibit rho-stimulated SRE.L luciferase expression in HEK293T cells (980 nM). […] Only at high concentrations (10 uM) is there any effect on proliferation or matrix invasion and there is no inhibition of BrdU incorporation as well.
# SKOV-3 cells [5] = experiment: Matrigel matrix invasion by SKOV-3 cells; assay type: cell-based
# Experimental: FIG. 11 CCG-1423 inhibits the spontaneous matrix invasion by PC-3 cells. Top) One prostate and three ovarian cancer lines (50,000 cells per well) were lifted with trypsin, suspended in serum free medium and plated on 24-well Matrigel inserts with (solid) or without (hatched) 30 μM LPA in the lower chamber. After 24 hours, cells above the filter were wiped off and the remaining cells were fixed, stained, and counted to determine the number of cells that had invaded the Matrigel. Bottom) Matrigel invasion by PC-3 cells (-LPA) and SKOV-3 cells (+30 μM LPA) was tested in the presence of the indicated concentrations of CCG-1423.
# CMV-Renilla = CMV-Renilla control reporter expression; assay type: cell-based
# Experimental: as §4, §2, §1, §3
# ras = experiment: ras-stimulated transcriptional signals (c-fos and SRE.L reporters, FIG. 14); assay type: cell-based; details: for ras-stimulated transcriptional signals: c-fos reporter, FIG. 14 bottom panel
# From the text: FIG. 14. […] The rho reporter SRE.L can also be activated by ras (probably via rho activation).
# [6] = test system: SKOV-3 ovarian cancer cell line; experiment: BrdU incorporation in SKOV-3 cells; assay type: cell-based
# GAL4-VP16 Luciferase = GAL4-VP16 Luciferase control reporter; assay type: cell-based
# RhoA = RhoA transcriptional signal, SRE-Luciferase / CMV-Renilla dual reporters (FIG. 6); assay type: cell-based; details: 6 micromolar, added 6 hours after transfection, read 16 hours later
# Experimental: as §4
# [7] = test system: RGS-rhoGEFs (LARG, PDZrhoGEF, p115rhoGEF); experiment: rhoGEF-stimulated SRE.L dual luciferase assay in HEK293 cells; assay type: cell-based, human; details: 0.5 μM
# Experimental: Luciferase Assays—Twenty-four hours post-transfection with firefly and Renilla vectors, HEK293 cells were serum-starved (0.5% serum), and then at 48 h, luciferase activity was determined using the dual luciferase assay kit (Promega, Madison, Wis.) according to the manufacturer's instructions. The ratio of firefly to Renilla luciferase counts was calculated. Data are expressed as the percent of the control value (samples without siRNA).
# In these studies, each rhoGEF plasmid DNA (p115, PDZ, or LARG) was introduced into HEK293T cells using LipofectAMINE 2000 in a 96-well plate along with the dual luciferase reporters (SRE.L and pRL-TK) and a panel of different rhoGEF siRNAs (+) or inverted mutant siRNAs (−). […] Firefly/Renilla ratios for the siRNAs (+ and −) were expressed as a percent of that for buffer controls with only the rhoGEF and reporter cDNAs transfected.
# ROCK = experiment: Luciferase expression stimulated by transfecting in the kinase ROCK; assay type: cell-based
# PC-3 cells [8] = experiment: Cell rounding assay in PC-3 cells; assay type: cell-based, human; details: 30 min
# Experimental: Cell Rounding Assay—The day before transfection, PC-3 cells were grown on laminin-coated coverslips in 12-well plates until […]. Cells were then transfected with 0.2 μg of EGFP cDNA. To disrupt rho signaling GFP was co-transfected with either a C3 exotoxin expression vector (0.5 μg) or with 2.0 μg of the indicated siRNA or inverted control along with 8 μl/well of LipofectAMINE 2000. At 45 h post-transfection, cultures were changed to serum-free medium and 6 h later treated with either buffer, thrombin (100 nM), or LPA (50 μM) for 30 min. Cells were then fixed with 4% paraformaldehyde for 10 min and GFP images obtained using an Olympus fluorescence microscope with a 20× objective. Fluorescent cells were counted (100-300 per coverslip) and the percentage of rounded cells determined. Cell rounding at 30 min was dose-dependent (EC50 80 nM for thrombin and 50 μM for LPA) and reversible upon removal of thrombin for 45 min.
# rho stimulates several types of cytoskeletal rearrangements. […] In these studies, at 48 h after transfection, cells were stimulated with thrombin (100 nM) or LPA (50 μM) for 30 min, fixed, and fluorescence images taken. […] At 48 h post-transfection cells were stimulated with thrombin or LPA and analyzed as described above. One-hundred green cells from each coverslip were counted, and the percentage of round cells was determined. […]
compound,measurement,setting,value
CC(ONC(=O)c1cc(C(F)(F)F)cc(C(F)(F)F)c1)C(=O)Nc1ccc(Cl)cc1 (stereo not drawn) [CCG-1423],Inhibition of G13/LARG-stimulated rho transcriptional signaling,[1],Inhibition
same,IC50,"[1]; HEK293T cells, dose response curves, read-out: IC50, inhibition of G13/LARG (rho-) stimulated SRE.L luciferase expression",~1000 nM and 980 nM and 800 nM
same,IC50,"[1]; HTS reporter assay, read-out: IC50, inhibition of MKL/SRF-dependent gene transcription",~800 nM
same,luciferase expression activated by SRF-VP16,SRE Luciferase,inhibited; also recorded: able to inhibit
same,luciferase expression induced by MKL,SRE Luciferase,inhibited
same,"SRE Luciferase stimulated by upstream (Gα13, LARG, and RhoA-GV) and downstream signals (MKL1)","SRE Luciferase; 10 μM, PC-3 cells",inhibiting
same,SRF-VP16 Luciferase,"SRE Luciferase; 10 μM, PC-3 cells",no effect
same,"luciferase expression induced by G13, LARG or constitutively active rhoA-GV",SRE Luciferase,inhibited
same,"three different rho pathway activators (G13, rhoA-GV, and MKL1)",SRE Luciferase; FIG. 13,Inhibition
same,FBS (serum)-stimulated DNA synthesis,[2],not inhibited until high concentrations are reached
same,RhoC transcriptional signal (rhoC-stimulated luciferase expression),RhoC,inhibits
same,concentration at which there is any effect on proliferation,SKOV-3 cells [3],10 µM
same,IC50,"SKOV-3 cells [3]; 2% FBS, 7 days, WST1",3000 nM
same,viable cells (WST1 metabolism),PC-3 cells [4],no decrease in viable cells
same,concentration at which there is any effect on matrix invasion,SKOV-3 cells [5],10 µM
same,CMV-Renilla expression,CMV-Renilla; 3 μM,did not inhibit
same,CMV-driven Renilla expression,"CMV-Renilla; 10 μM, PC-3 cells",does not inhibit
same,control reporter CMV-Renilla expression,CMV-Renilla; concentration not given,not inhibited; also recorded: no effect
same,ras-stimulated transcriptional signals,ras,inhibition
same,inhibition of BrdU incorporation,[6],no inhibition
same,Gal-4-VP16 Luciferase signal,GAL4-VP16 Luciferase; 3 μM,only a slight inhibitory effect
same,GAL4-VP16 Luciferase,"GAL4-VP16 Luciferase; 10 μM, PC-3 cells",no effect
same,RhoA transcriptional signal (SRE-Luciferase),RhoA,blocking; also recorded: inhibits
"C/C1=C/C(=O)O[C@@H]2C[C@@H](CC[C@H](C)/C=C\CC1)O[C@@](O)([C@@H]1CSC(=O)N1)C2 [Latrunculin B, reference compound]",Inhibition of G13/LARG-stimulated rho transcriptional signaling,[1],Inhibition
same,luciferase expression activated by SRF-VP16,SRE Luciferase,did not inhibit
same,"luciferase expression induced by G13, LARG or constitutively active rhoA-GV",SRE Luciferase,fully inhibits
same,rhoGEF-stimulated luciferase signal,[7],completely eliminated
same,SRE.L rho reporter signal activated by ras,ras; FIG. 14,blocked
same,ras-stimulated transcriptional signals,ras,not
"C[C@@H](N)[C@H]1CC[C@H](C(=O)Nc2ccncc2)CC1 [Y-27632, reference compound]",Inhibition of G13/LARG-stimulated rho transcriptional signaling,[1],only partially blocked; also recorded: Inhibition
same,luciferase expression stimulated by transfecting in the kinase ROCK,ROCK,fully inhibited
"lysophosphatidic acid [LPA, reference compound]",EC50,PC-3 cells [8],50000 nM
thrombin,EC50,PC-3 cells [8],80 nM
